We go through 16 molecules from patent US6924302B2, “Substituted triazole diamine derivatives as kinase inhibitors” (Ortho McNeil Pharmaceutical, Inc., priority 2000, dated 2005).

Assay [1] deals with Insulin Receptor Kinase (Homo sapiens, UniProt P06213). Description: Kinase Selectivity Assay Insulin Receptor Kinase. Type of assay: biochemical. The note with it: Kinase Selectivity, Tables 2a-2k; read-out: Insulin R Kinase IC50. The method in brief:
(§1)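 Biotinylated peptide phosphorylation measured as ^33P-γ-ATP incorporation on streptavidin plates after 1 h at 30° C, 1% DMSO final, enzyme in 50 mM Tris-HCl pH 8.0, 0.1% BSA. Compounds in duplicate at 8 concentrations, 100 uM to 10 pM. IC50 from percent inhibition versus log concentration.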

Assay [2] has as its target T1, Protein Kinase A (Bos taurus, UniProt P00517).
T1 construct: purified from bovine heart; purchased Upstate Biotech 14-114; host or cells: bovine heart
Kind of assay: Kinase Selectivity Assay Protein Kinase A. Type of assay: biochemical, bovine. The note with it: Kinase Selectivity, Tables 2a-2k; read-out: PKA IC50. Put shortly: as §1

Assay [3] concerns the target T2, Casein Kinase 1 (CK1 delta isoform) (Rattus norvegicus, UniProt Q06486).
T2 construct: a truncation at amino acid 318 of the C-terminal portion of the rat CK1 delta isoform; purchased New England Biolabs 6030; host or cells: E. coli
T2 sequence (Q06486 1-317): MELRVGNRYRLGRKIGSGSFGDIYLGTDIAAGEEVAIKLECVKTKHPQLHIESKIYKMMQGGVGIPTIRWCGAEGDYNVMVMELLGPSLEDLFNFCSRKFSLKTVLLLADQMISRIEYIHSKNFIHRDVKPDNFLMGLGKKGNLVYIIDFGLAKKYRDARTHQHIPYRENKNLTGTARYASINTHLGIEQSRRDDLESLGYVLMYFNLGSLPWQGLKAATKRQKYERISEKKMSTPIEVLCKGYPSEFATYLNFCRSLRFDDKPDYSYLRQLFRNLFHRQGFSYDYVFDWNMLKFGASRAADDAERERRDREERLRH
Kind of assay: Kinase Selectivity Assay Casein Kinase 1. The class given is biochemical. The settings on record: Tables 2a-2k, read-out: Caseine Kinase 1 IC50. The method in brief: as §1

For assay [4], the target named is T3, Casein Kinase 2 (alpha and beta subunits) (Homo sapiens, UniProt P68400).
T3 construct: purchased New England Biolabs 6010; host or cells: E. coli
T3 sequence (P68400 whole entry): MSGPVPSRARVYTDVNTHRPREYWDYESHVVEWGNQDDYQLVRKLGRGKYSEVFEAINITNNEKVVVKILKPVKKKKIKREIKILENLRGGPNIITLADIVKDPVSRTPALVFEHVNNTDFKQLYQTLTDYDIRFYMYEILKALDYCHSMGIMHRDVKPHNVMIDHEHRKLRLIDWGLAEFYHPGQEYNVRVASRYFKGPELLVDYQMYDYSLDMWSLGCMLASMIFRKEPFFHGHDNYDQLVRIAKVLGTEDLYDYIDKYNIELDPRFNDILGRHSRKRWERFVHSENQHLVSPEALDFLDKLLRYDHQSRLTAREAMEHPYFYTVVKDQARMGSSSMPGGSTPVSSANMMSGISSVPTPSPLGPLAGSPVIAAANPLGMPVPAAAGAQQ
T3 sequence (P67870 whole entry partner): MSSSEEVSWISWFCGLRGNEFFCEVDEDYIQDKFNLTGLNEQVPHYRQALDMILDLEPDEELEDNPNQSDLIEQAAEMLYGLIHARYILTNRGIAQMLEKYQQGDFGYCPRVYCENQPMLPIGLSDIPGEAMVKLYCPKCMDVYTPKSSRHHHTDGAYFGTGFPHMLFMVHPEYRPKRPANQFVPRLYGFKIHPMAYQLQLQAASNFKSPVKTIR
Kind of assay: Kinase Selectivity Assay Casein Kinase 2. The class given is biochemical. The note with it: Kinase Selectivity, Tables 2a-2k; read-out: Caseine Kinase 2 IC50. The method in brief: as §1

The test system of assay [5] is HeLa cervical adenocarcinoma. Kind of assay: Inhibition of Cell Proliferation (14C-thymidine incorporation), HeLa. The class given is cell-based. The note with it: Homo sapiens, HeLa cell line. The procedure:
(§2) The ability of a test compound to inhibit the proliferation of cell growth was determined by measuring incorporation of ^14C-labelled thymidine into newly synthesized DNA within the cells. This method was used on cell lines derived from carcinomas originating from several tissues such as HeLa cervical adenocarcinoma (American Type Culture Collection (ATCC), Virginia, Cat. #CCL-2), A375 malignant melanoma (ATCC CRL-1619), SK-OV-3 ovarian adenocarcinoma (ATCC HTB-77) HCT-116 colon carcinoma (CCL-247), PC-3 prostate adenocarcinoma (ATCC CRL-1435), and MDA-MB-231 (Xenogen Corp.) In this way the effect of a compound on cell growth of cells with many different phenotypes can be determined. Cells were trypsinized and counted and 3000-8000 cells were added to each well of a 96-well CytoStar tissue culture treated scintillating microplate (Amersham #RPNQ0160) in complete medium in a volume of 100 μl. Cells were incubated for 24 hours in complete medium at 37° C. in an atmosphere containing 5% CO2. Next, 1 μl of test compound in 100% DMSO was added to the wells of the plate. DMSO only was added to control wells. Cells were incubated for 24 more hours in complete medium at 37° C. in an atmosphere containing 5% CO2. Methyl ^14C-thymidine 56 mCi/mmol (NEN #NEC568 or Amersham #CFA532) was diluted in complete medium and 0.2 uCi/well was added to each well of the CytoStar plate in a volume of 20 μl. The plate was incubated for 24 hours at 37° C. plus 5% CO2 in drug plus ^14C-thymidine. The contents of the plate were discarded into a ^14C radioactive waste container by inverting the plate and the plate was washed twice with 200 μl PBS. 200 μl of PBS is added to each well. The top of the plate was sealed with a transparent plate sealer and a white plate backing sealer (Packard #6005199) was applied to the bottom of the plate. The degree of methyl ^14C-thymidine incorporation was quantified on a Packard Top Count.

Assay [6] concerns HCT-116 colon carcinoma. Kind of assay: Inhibition of Cell Proliferation (14C-thymidine incorporation), HCT-116. Type of assay: cell-based. The settings on record: Homo sapiens, HCT-116 cell line. On the procedure: as §2
For orientation: Incorporation of labelled thymidine or its analogues reports DNA synthesis.

The subject of assay [7] is PC-3 prostate adenocarcinoma. Description: Inhibition of Cell Proliferation (14C-thymidine incorporation), PC-3. Type of assay: cell-based. The settings on record: Homo sapiens, PC-3 cell line. On the procedure: as §2
Assay [8] deals with A375 malignant melanoma. Description: Inhibition of Cell Proliferation (14C-thymidine incorporation), A375. Type of assay: cell-based. The settings on record: Homo sapiens, A-375, A375 cell line. The procedure:
as §2

Insulin Receptor Kinase, sequence (P06213 980-1352): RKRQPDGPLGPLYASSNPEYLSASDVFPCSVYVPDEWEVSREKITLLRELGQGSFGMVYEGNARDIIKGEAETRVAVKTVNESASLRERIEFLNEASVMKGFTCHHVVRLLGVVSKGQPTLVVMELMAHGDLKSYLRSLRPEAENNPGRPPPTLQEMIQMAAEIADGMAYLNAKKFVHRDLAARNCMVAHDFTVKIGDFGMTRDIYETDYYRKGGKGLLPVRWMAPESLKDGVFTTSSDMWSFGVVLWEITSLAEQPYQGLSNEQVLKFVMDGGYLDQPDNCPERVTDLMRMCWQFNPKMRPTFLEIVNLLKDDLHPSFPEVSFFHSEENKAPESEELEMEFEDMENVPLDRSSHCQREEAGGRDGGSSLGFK

For `CCc1ccc(C(=O)n2nc(Nc3ccc(S(N)(=O)=O)cc3)nc2N)s1` [Cpd 32, 4-[[5-amino-1-[(5-ethyl-2-thienyl)carbonyl]-1H-1,2,4-triazol-3-yl]amino]-benzenesulfonamide], the IC50 in assay [1] is 123 nM; in assay [2], greater than 100000 nM; in assay [3], 181 nM; in assay [4], 527 nM; in assay [5], 71 nM; in assay [6] it was 26 nM. The same molecule registered a concentration for half-maximal inhibition (IC50) in assay [7] of 30 nM.
For the molecule `Nc1nc(Nc2ccc(S(N)(=O)=O)cc2)nn1C(=O)c1sccc1Br` [Cpd 35, 4-[[5-amino-1-[(3-bromo-2-thienyl)carbonyl]-1H-1,2,4-triazol-3-yl]amino]-benzenesulfonamide], the half-maximal inhibitory concentration (IC50) in assay [5] amounted to 663 nM; in assay [6] it was 172 nM; in assay [7], 231 nM.
`Cc1ccccc1C(=O)n1nc(Nc2ccc(S(N)(=O)=O)cc2)nc1N` [Cpd 57, 4-[[5-amino-1-(2-methylbenzoyl)-1H-1,2,4-triazol-3-yl]amino]-benzenesulfonamide]: the half-inhibitory concentration (IC50) in assay [1] was greater than 100000 nM; in assay [2], greater than 100000 nM; in assay [3], 14000 nM; in assay [4] it was greater than 100000 nM; in assay [5] it was 339 nM; in assay [8], 113 nM. The molecule further yielded an IC50 in assay [6] of 95 nM.
For the molecule `CN1CCN(c2ccc(Nc3nc(N)n(C(=O)c4c(F)cccc4F)n3)cc2)CC1` [Cpd 71, 1-(2,6-difluorobenzoyl)-N^3-[4-(4-methyl-1-piperazinyl)phenyl]-1H-1,2,4-triazole-3,5-diamine], the half-inhibitory concentration (IC50) is 35300 nM in assay [1]; greater than 100000 nM in assay [2]; greater than 100000 nM in assay [3]; greater than 100000 nM in assay [4]; 1920 nM in assay [5]; 25 nM in assay [7].
As for `CNS(=O)(=O)c1ccc(Nc2nc(N)n(C(=O)c3c(F)cccc3F)n2)cc1` [Cpd 80, 4-[[5-amino-1-(2,6-difluorobenzoyl)-1H-1,2,4-triazol-3-yl]amino]-N-methyl-benzenesulfonamide], the results for the 50% inhibitory concentration (IC50) in assay [5] and in assay [7] were 880 nM and 272 nM, respectively.
For the molecule `CNS(=O)(=O)c1ccc(Nc2nc(N)n(C(=O)c3sccc3C)n2)cc1` [Cpd 82, 4-[[5-amino-1-[(3-methyl-2-thienyl)carbonyl]-1H-1,2,4-triazol-3-yl]amino]-N-methyl-benzenesulfonamide], the IC50 in assay [1] was 1100 nM; in assay [2], greater than 100000 nM; in assay [3], 354 nM; in assay [4], greater than 100000 nM; in assay [5], 245 nM; in assay [7], 15 nM.
Consider `CCc1ccc(C(=O)n2nc(Nc3ccc(S(=O)(=O)NC)cc3)nc2N)s1` [Cpd 84, 4-[[5-amino-1-[(5-ethyl-2-thienyl)carbonyl]-1H-1,2,4-triazol-3-yl]amino]-N-methyl-benzenesulfonamide], for which the IC50 in assay [1] came to 172 nM; in assay [2] it was 2200 nM; in assay [3], 188 nM; in assay [4] it was 1670 nM; in assay [5], 142 nM; in assay [7], 23 nM.
For the molecule `CCc1ccc(C(=O)n2nc(Nc3ccc(S(=O)(=O)NCCN(C)C)cc3)nc2N)s1` [Cpd 103, 4-[[5-amino-1-[(5-ethyl-2-thienyl)carbonyl]-1H-1,2,4-triazol-3-yl]amino]-N-[2-(dimethylamino)ethyl]-benzenesulfonamide], the IC50 in assay [1] is 123 nM; in assay [2], greater than 100000 nM; in assay [3], 322 nM; in assay [4], 5300 nM; in assay [5], 62 nM; in assay [8], 115 nM. In addition, the half-inhibitory concentration (IC50) in assay [6] came to 75 nM.
For the molecule `Cc1ccsc1C(=O)n1nc(Nc2ccc(S(=O)(=O)NCCN(C)C)cc2)nc1N` [Cpd 104, 4-[[5-amino-1-[(3-methyl-2-thienyl)carbonyl]-1H-1,2,4-triazol-3-yl]amino]-N-[2-(dimethylamino)ethyl]-benzenesulfonamide], the IC50 in assay [1] was 2090 nM; in assay [2] it was greater than 100000 nM; in assay [3], 624 nM; in assay [4], greater than 100000 nM; in assay [5] it was 186 nM; in assay [8] it was 108 nM. In assay [6], this molecule came in with an IC50 of 41 nM.
In the case of `Cc1cc(C)c(C(=O)n2nc(Nc3ccc(NS(C)(=O)=O)cc3)nc2N)s1` [Cpd 108, N-[4-[[5-amino-1-[(3,5-dimethyl-2-thienyl)carbonyl]-1H-1,2,4-triazol-3-5 yl]amino]phenyl]-methanesulfonamide], the IC50 in assay [3] is 816 nM; in assay [4], greater than 10000 nM.
On to `Cc1ccsc1C(=O)n1nc(Nc2ccc(N3CCNC3=O)cc2)nc1N` [Cpd 113, 1-[4-[[5-amino-1-[(3-methyl-2-thienyl)carbonyl]-1H-1,2,4-triazol-3-yl]amino]phenyl]-2-imidazolidinone], for which the IC50 in assay [1] was greater than 10000 nM; in assay [2] it was greater than 100000 nM; in assay [3] it was 318 nM; in assay [4] it was greater than 100000 nM; in assay [5] it was 242 nM; in assay [6], 281 nM.
Take `Cc1ccsc1C(=O)n1nc(Nc2ccc(N3CCCS3(=O)=O)cc2)nc1N` [Cpd 116, N^3-[4-(1,1-dioxido-2-isothiazolidinyl)phenyl]-1-[(3-methyl-2-thienyl)carbonyl]-1H-1,2,4-triazole-3,5-diamine]: the IC50 in assay [1] was greater than 100000 nM; in assay [2], greater than 100000 nM; in assay [3] it was greater than 1000 nM; in assay [4], greater than 100000 nM; in assay [5], 380 nM; in assay [8], 639 nM. This molecule had a half-maximal inhibitory concentration (IC50) in assay [6] of 349 nM.
As for `Nc1nc(Nc2ccc(N3CCCS3(=O)=O)cc2)nn1C(=O)c1c(F)cccc1F` [Cpd 117], the IC50 was greater than 100000 nM in assay [1]; greater than 100000 nM in assay [2]; 13500 nM in assay [3]; greater than 100000 nM in assay [4]; 2060 nM in assay [5]; 2190 nM in assay [8]. In assay [6], this molecule showed an IC50 of 1120 nM.
For the molecule `Nc1nc(Nc2ccc(S(=O)(=O)Nc3ccccn3)cc2)nn1C(=O)c1c(F)cccc1F` [Cpd 118, 4-[[5-amino-1-(2,6-difluorobenzoyl)-1H-1,2,4-triazol-3-yl]amino]-N-(2-pyridinyl)-benzenesulfonamide], the half-maximal inhibitory concentration (IC50) in assay [1] was greater than 100000 nM; in assay [2], greater than 100000 nM; in assay [3] it was greater than 100000 nM; in assay [4] it was greater than 100000 nM; in assay [5], 1940 nM; in assay [8], 1620 nM. This molecule also displayed a half-maximal inhibitory concentration (IC50) in assay [6] of 1170 nM.
Take `Cc1cc(C)c(C(=O)n2nc(Nc3ccc(S(=O)(=O)Nc4ccccn4)cc3)nc2N)s1` [Cpd 120]: the IC50 in assay [1] is greater than 100000 nM; in assay [2], greater than 100000 nM; in assay [3] it was greater than 10000 nM; in assay [4], greater than 100000 nM; in assay [5], 978 nM; in assay [8] it was 259 nM. Further, the IC50 in assay [6] came to 334 nM.
For `Cc1ccc(F)c(C(=O)n2nc(N)nc2Nc2ccc(S(N)(=O)=O)cc2)c1F` [Cpd 123, 4-[[3-amino-1-(2,6-difluoro-3-methylbenzoyl)-1H-1,2,4-triazol-5-yl]amino]-benzenesulfonamide], the half-inhibitory concentration (IC50) in assay [1] was greater than 100000 nM; in assay [2], greater than 100000 nM; in assay [3], greater than 100000 nM; in assay [4], greater than 100000 nM; in assay [5], 28500 nM; in assay [8] it was greater than 10000 nM. Moreover, the IC50 in assay [6] was determined as 4140 nM.

For orientation: IC50 means the concentration needed to halve the response being measured.
